Laboratory results published in ChEMBL document CHEMBL1201862, “PubChem BioAssay data set” (2004).
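Five concentrations, 48 hours, 96-well plates. GI50: concentration for 50% inhibition of growth.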 Active and inactive are the calls of the source. No stated cut-off is given here; in the data, active = GI50 up to about 1.1 µM and inactive = higher.

Assays:
Assay in all cases: NCI anticancer screen, dose series, 48 h
KM12 = tested on: KM12
OVCAR-4 = tested on: OVCAR-4
SF-539 = tested on: SF-539
UACC-257 = tested on: UACC-257
IGROV-1 = tested on: IGROV-1
HT-29 = tested on: HT-29
HCT-116 = tested on: HCT-116
OVCAR-5 = tested on: OVCAR-5
COLO 205 = tested on: COLO 205
SK-MEL-5 = tested on: SK-MEL-5
DLD-1 = tested on: DLD-1
NCI-H23 = tested on: NCI-H23
XF498 = tested on: XF498
U-251 = tested on: U-251
HOP-62 = tested on: HOP-62
SNB-19 = tested on: SNB-19
LOX IMVI = tested on: LOX IMVI
SN12C = tested on: SN12C
HCT-15 = tested on: HCT-15
SF-268 = tested on: SF-268
UACC-62 = tested on: UACC-62
ACHN = tested on: ACHN
OVCAR-3 = tested on: OVCAR-3
HCC 2998 = tested on: HCC 2998
SF-295 = tested on: SF-295
SK-MEL-2 = tested on: SK-MEL-2
A498 = tested on: A498
SNB-78 = tested on: SNB-78
SNB-75 = tested on: SNB-75
TK-10 = tested on: TK-10
KM-20L2 = tested on: KM-20L2
NCI-H522 = tested on: NCI-H522
DMS-114 = tested on: DMS-114
786-0 = tested on: 786-0
CCRF-CEM = tested on: CCRF-CEM
RPMI-8226 = tested on: RPMI-8226
A549 = tested on: A549
NCI-H460 = tested on: NCI-H460
SW-620 = tested on: SW-620
NCI-H226 = tested on: NCI-H226
OVCAR-8 = tested on: OVCAR-8
HOP-18 = tested on: HOP-18
RXF 631 = tested on: RXF 631
EKVX = tested on: EKVX
SK-MEL-28 = tested on: SK-MEL-28
K562 = tested on: K562
RXF 393 = tested on: RXF 393
M14 = tested on: M14
CAKI-1 = tested on: CAKI-1
M19-MEL = tested on: M19-MEL
SR = tested on: SR
Malme-3M = tested on: Malme-3M
UO-31 = tested on: UO-31
DMS-273 = tested on: DMS-273
HOP-92 = tested on: HOP-92
MOLT-4 = tested on: MOLT-4
LXFL 529 = tested on: LXFL 529
SK-OV-3 = tested on: SK-OV-3
HL-60 = tested on: HL-60

## [N-]=[N+]=Nc1ccc(S(=O)(=O)Oc2cc(OS(=O)(=O)c3ccc(N=[N+]=[N-])cc3)cc(OS(=O)(=O)c3ccc(N=[N+]=[N-])cc3)c2)cc1
KM12
  GI50: > 100 µM (inactive)
OVCAR-4
  GI50: > 10 µM (inactive)
SF-539
  GI50: > 100 µM (inactive)
UACC-257
  GI50: > 100 µM (inactive)
IGROV-1
  GI50: > 100 µM (inactive)
HT-29
  GI50: > 100 µM (inactive)
HCT-116
  GI50: > 100 µM (inactive)
OVCAR-5
  GI50: > 100 µM (inactive)
COLO 205
  GI50: > 10 µM (inactive)
SK-MEL-5
  GI50: > 100 µM (inactive)
DLD-1
  GI50: > 100 µM (inactive)
NCI-H23
  GI50: > 100 µM (inactive)
XF498
  GI50: > 100 µM (inactive)
U-251
  GI50: > 100 µM (inactive)
HOP-62
  GI50: > 100 µM (inactive)
SNB-19
  GI50: > 10 µM (inactive)
LOX IMVI
  GI50: > 100 µM (inactive)
SN12C
  GI50: > 10 µM (inactive)
HCT-15
  GI50: > 100 µM
SF-268
  GI50: > 100 µM (inactive)
UACC-62
  GI50: > 100 µM (inactive)
ACHN
  GI50: > 10 µM (inactive)
OVCAR-3
  GI50: > 100 µM (inactive)
HCC 2998
  GI50: > 100 µM (inactive)
SF-295
  GI50: > 100 µM (inactive)
SK-MEL-2
  GI50: > 100 µM (inactive)
A498
  GI50: > 100 µM (inactive)
SNB-78
  GI50: > 100 µM (inactive)
SNB-75
  GI50: > 10 µM (inactive)
TK-10
  GI50: > 100 µM (inactive)
KM-20L2
  GI50: > 100 µM (inactive)
NCI-H522
  GI50: > 100 µM (inactive)
DMS-114
  GI50: > 100 µM (inactive)
786-0
  GI50: > 100 µM (inactive)
CCRF-CEM
  GI50: > 100 µM (inactive)
RPMI-8226
  GI50: > 100 µM (inactive)
A549
  GI50: > 100 µM (inactive)
NCI-H460
  GI50: > 100 µM (inactive)
SW-620
  GI50: > 10 µM (inactive)
NCI-H226
  GI50: > 10 µM (inactive)
OVCAR-8
  GI50: > 10 µM (inactive)
HOP-18
  GI50: > 100 µM (inactive)
RXF 631
  GI50: > 100 µM (inactive)
EKVX
  GI50: > 100 µM (inactive)
SK-MEL-28
  GI50: > 100 µM (inactive)
K562
  GI50: > 100 µM (inactive)
RXF 393
  GI50: > 100 µM (inactive)
M14
  GI50: > 100 µM (inactive)
CAKI-1
  GI50: > 10 µM (inactive)
M19-MEL
  GI50: > 100 µM (inactive)
SR
  GI50: > 100 µM (inactive)
Malme-3M
  GI50: > 100 µM (inactive)
UO-31
  GI50: > 100 µM (inactive)
DMS-273
  GI50: > 100 µM (inactive)
HOP-92
  GI50: > 100 µM (inactive)
MOLT-4
  GI50: > 100 µM (inactive)
LXFL 529
  GI50: > 100 µM (inactive)

## COc1ccc2oc3cccc(NCCN(C)C)c3c(=O)c2c1
SK-OV-3
  GI50: 15.2 µM (inactive)
KM12
  GI50: 13.1 µM (inactive)
OVCAR-4
  GI50: 12.7 µM (inactive)
SF-539
  GI50: 14.3 µM (inactive)
UACC-257
  GI50: 16.3 µM (inactive)
IGROV-1
  GI50: 16.6 µM (inactive)
HT-29
  GI50: 7.83 µM (inactive)
HCT-116
  GI50: 7.01 µM (inactive)
OVCAR-5
  GI50: 12.3 µM (inactive)
COLO 205
  GI50: 5.6 µM (inactive)
SK-MEL-5
  GI50: 16.7 µM (inactive)
DLD-1
  GI50: 13.1 µM (inactive)
NCI-H23
  GI50: 17.7 µM (inactive)
XF498
  GI50: 14.5 µM (inactive)
U-251
  GI50: 12.7 µM (inactive)
HOP-62
  GI50: 15.2 µM (inactive)
SNB-19
  GI50: 14.3 µM (inactive)
LOX IMVI
  GI50: 10.6 µM (inactive)
SN12C
  GI50: 11 µM (inactive)
HCT-15
  GI50: 13.7 µM
SF-268
  GI50: 13.3 µM (inactive)
UACC-62
  GI50: 12.7 µM (inactive)
HL-60
  GI50: 9.68 µM (inactive)
ACHN
  GI50: 10.5 µM (inactive)
OVCAR-3
  GI50: 14.7 µM (inactive)
HCC 2998
  GI50: 8.65 µM (inactive)
SF-295
  GI50: 16.1 µM (inactive)
SK-MEL-2
  GI50: 16.5 µM (inactive)
A498
  GI50: 19.1 µM (inactive)
SNB-78
  GI50: 17.7 µM (inactive)
SNB-75
  GI50: 15.3 µM (inactive)
TK-10
  GI50: 14.8 µM (inactive)
KM-20L2
  GI50: 9.14 µM (inactive)
DMS-114
  GI50: 12.9 µM (inactive)
786-0
  GI50: 10.9 µM (inactive)
CCRF-CEM
  GI50: 11.9 µM (inactive)
RPMI-8226
  GI50: 12.6 µM (inactive)
A549
  GI50: 14.2 µM (inactive)
NCI-H460
  GI50: 8.83 µM (inactive)
SW-620
  GI50: 5.08 µM (inactive)
NCI-H226
  GI50: 16.2 µM (inactive)
OVCAR-8
  GI50: 11.1 µM (inactive)
HOP-18
  GI50: 11.6 µM (inactive)
RXF 631
  GI50: 13.7 µM (inactive)
EKVX
  GI50: 15 µM (inactive)
SK-MEL-28
  GI50: 18.2 µM (inactive)
K562
  GI50: 9.35 µM (inactive)
RXF 393
  GI50: 13.2 µM (inactive)
M14
  GI50: 15.8 µM (inactive)
CAKI-1
  GI50: 4.69 µM (inactive)
M19-MEL
  GI50: 15.3 µM (inactive)
SR
  GI50: 8.85 µM (inactive)
Malme-3M
  GI50: 15.6 µM (inactive)
UO-31
  GI50: 8.3 µM (inactive)
DMS-273
  GI50: 12.1 µM (inactive)
HOP-92
  GI50: 13.8 µM (inactive)
MOLT-4
  GI50: 4.01 µM (inactive)
LXFL 529
  GI50: 13.1 µM (inactive)

## COC1(OC)CCC2C1C1CCC(OC)(OC)C21 (stereo not given)
SK-OV-3
  GI50: > 50 µM (inactive)
KM12
  GI50: > 50 µM (inactive)
OVCAR-4
  GI50: > 50 µM (inactive)
SF-539
  GI50: > 50 µM (inactive)
UACC-257
  GI50: > 50 µM (inactive)
IGROV-1
  GI50: > 50 µM (inactive)
HT-29
  GI50: > 50 µM (inactive)
HCT-116
  GI50: > 50 µM (inactive)
OVCAR-5
  GI50: > 50 µM (inactive)
COLO 205
  GI50: > 50 µM (inactive)
SK-MEL-5
  GI50: > 50 µM (inactive)
DLD-1
  GI50: > 50 µM (inactive)
NCI-H23
  GI50: > 50 µM (inactive)
XF498
  GI50: > 50 µM (inactive)
U-251
  GI50: > 50 µM (inactive)
HOP-62
  GI50: > 50 µM (inactive)
SNB-19
  GI50: > 50 µM (inactive)
SN12C
  GI50: > 50 µM (inactive)
HCT-15
  GI50: > 50 µM
SF-268
  GI50: > 50 µM (inactive)
UACC-62
  GI50: > 50 µM (inactive)
HL-60
  GI50: > 50 µM (inactive)
ACHN
  GI50: > 50 µM (inactive)
OVCAR-3
  GI50: > 50 µM (inactive)
HCC 2998
  GI50: > 50 µM (inactive)
SF-295
  GI50: > 50 µM (inactive)
SK-MEL-2
  GI50: > 50 µM (inactive)
A498
  GI50: > 50 µM (inactive)
SNB-78
  GI50: > 50 µM (inactive)
SNB-75
  GI50: > 50 µM (inactive)
KM-20L2
  GI50: > 50 µM (inactive)
NCI-H522
  GI50: > 50 µM (inactive)
DMS-114
  GI50: > 50 µM (inactive)
786-0
  GI50: > 50 µM (inactive)
CCRF-CEM
  GI50: > 50 µM (inactive)
RPMI-8226
  GI50: > 50 µM (inactive)
A549
  GI50: > 50 µM (inactive)
SW-620
  GI50: > 50 µM (inactive)
NCI-H226
  GI50: > 50 µM (inactive)
OVCAR-8
  GI50: > 50 µM (inactive)
HOP-18
  GI50: > 50 µM (inactive)
RXF 631
  GI50: > 50 µM (inactive)
EKVX
  GI50: > 50 µM (inactive)
SK-MEL-28
  GI50: > 50 µM (inactive)
K562
  GI50: > 50 µM (inactive)
RXF 393
  GI50: > 50 µM (inactive)
M14
  GI50: > 50 µM (inactive)
CAKI-1
  GI50: > 50 µM (inactive)
M19-MEL
  GI50: > 50 µM (inactive)
Malme-3M
  GI50: > 50 µM (inactive)
UO-31
  GI50: > 50 µM (inactive)
DMS-273
  GI50: > 50 µM (inactive)
HOP-92
  GI50: > 50 µM (inactive)
MOLT-4
  GI50: > 50 µM (inactive)
LXFL 529
  GI50: > 50 µM (inactive)
